Data from PubChem BioAssay (NCI).
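The compound was tested at five concentrations on cells cultured in 96-well plates, with a 48-hour exposure period. At the TGI there is no net growth.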

Each molecule was assayed on NCI-H460 lung (assay: NCI-60 cell line screen, 48 h).
For `Cc1ccc(N=Nc2c(C)nn(-c3ccccc3)c2C)c(Br)c1`, the TGI was > 100 µM.
In the case of `CCOC(=O)[C@]12C3C=CC(C3)C1C(=O)C1OC12` (some centres not stated), the TGI is reported as > 100 µM.

Each molecule was assayed on HOP-92 NSCLC (assay: NCI-60 cell line screen, 48 h).
In the case of `[O-][n+]1c(-c2ccccc2)oc2ccccc21`, the TGI is reported as > 100 µM.
In the case of `Cc1cccc(C)c1NC(=O)CCC(=O)NNc1nnc(C)n1N`, the TGI is reported as > 100 µM.
With `Cc1ccc(N=Nc2c(C)nn(-c3ccccc3)c2C)c(Br)c1` the TGI was > 100 µM.
With `CCOC(=O)[C@]12C3C=CC(C3)C1C(=O)C1OC12` (some centres not stated) the TGI was > 100 µM.

Each molecule was assayed on SK-OV-3 ovarian (assay: NCI-60 cell line screen, 48 h).
With `[O-][n+]1c(-c2ccccc2)oc2ccccc21` the TGI was > 100 µM.
In the case of `Cc1cccc(C)c1NC(=O)CCC(=O)NNc1nnc(C)n1N`, the TGI is reported as > 100 µM.
For `Cc1ccc(N=Nc2c(C)nn(-c3ccccc3)c2C)c(Br)c1`, the TGI was > 100 µM.
In the case of `CCOC(=O)[C@]12C3C=CC(C3)C1C(=O)C1OC12` (some centres not stated), the TGI is reported as > 100 µM.

These molecules were tested on NCI-H226 lung (assay: NCI-60 cell line screen, 48 h).
`[O-][n+]1c(-c2ccccc2)oc2ccccc21` was tested, and the TGI was > 100 µM.
For `Cc1cccc(C)c1NC(=O)CCC(=O)NNc1nnc(C)n1N`, the TGI was > 100 µM.
For `Cc1ccc(N=Nc2c(C)nn(-c3ccccc3)c2C)c(Br)c1`, the TGI was > 100 µM.
With `CCOC(=O)[C@]12C3C=CC(C3)C1C(=O)C1OC12` (some centres not stated) the TGI was > 100 µM.

The molecules below were run on COLO 205 colon (assay: NCI-60 cell line screen, 48 h).
With `[O-][n+]1c(-c2ccccc2)oc2ccccc21` the TGI was 33.6 µM.
`Cc1cccc(C)c1NC(=O)CCC(=O)NNc1nnc(C)n1N` was tested, and the TGI was > 100 µM.
For `Cc1ccc(N=Nc2c(C)nn(-c3ccccc3)c2C)c(Br)c1`, the TGI was > 100 µM.
`CCOC(=O)[C@]12C3C=CC(C3)C1C(=O)C1OC12` (some centres not stated) was tested, and the TGI was > 100 µM.

Each molecule was assayed on A549 NSCLC (assay: NCI-60 cell line screen, 48 h).
`[O-][n+]1c(-c2ccccc2)oc2ccccc21` gave a TGI of 17.9 µM.
For `Cc1cccc(C)c1NC(=O)CCC(=O)NNc1nnc(C)n1N`, the TGI was > 100 µM.
`Cc1ccc(N=Nc2c(C)nn(-c3ccccc3)c2C)c(Br)c1` was tested, and the TGI was > 100 µM.
In the case of `CCOC(=O)[C@]12C3C=CC(C3)C1C(=O)C1OC12` (some centres not stated), the TGI is reported as > 100 µM.

The molecules below were run on LOX IMVI melanoma (assay: NCI-60 cell line screen, 48 h).
Work on `[O-][n+]1c(-c2ccccc2)oc2ccccc21` yielded a TGI of 15.7 µM.
For `Cc1cccc(C)c1NC(=O)CCC(=O)NNc1nnc(C)n1N`, the TGI was > 100 µM.
With `Cc1ccc(N=Nc2c(C)nn(-c3ccccc3)c2C)c(Br)c1` the TGI was > 100 µM.
For `CCOC(=O)[C@]12C3C=CC(C3)C1C(=O)C1OC12` (some centres not stated), the TGI was > 100 µM.

These molecules were tested on ACHN renal (assay: NCI-60 cell line screen, 48 h).
Molecule `[O-][n+]1c(-c2ccccc2)oc2ccccc21` has a TGI of 39.4 µM.
`Cc1cccc(C)c1NC(=O)CCC(=O)NNc1nnc(C)n1N` was tested, and the TGI was > 100 µM.
For `Cc1ccc(N=Nc2c(C)nn(-c3ccccc3)c2C)c(Br)c1`, the TGI was > 100 µM.
In the case of `CCOC(=O)[C@]12C3C=CC(C3)C1C(=O)C1OC12` (some centres not stated), the TGI is reported as > 100 µM.

Each molecule was assayed on SN12C renal (assay: NCI-60 cell line screen, 48 h).
`[O-][n+]1c(-c2ccccc2)oc2ccccc21` gave a TGI of 29 µM.
In the case of `Cc1cccc(C)c1NC(=O)CCC(=O)NNc1nnc(C)n1N`, the TGI is reported as > 100 µM.
In the case of `Cc1ccc(N=Nc2c(C)nn(-c3ccccc3)c2C)c(Br)c1`, the TGI is reported as > 100 µM.
With `CCOC(=O)[C@]12C3C=CC(C3)C1C(=O)C1OC12` (some centres not stated) the TGI was > 100 µM.

Each molecule was assayed on RXF 393 renal (assay: NCI-60 cell line screen, 48 h).
For `[O-][n+]1c(-c2ccccc2)oc2ccccc21`, the TGI was 55.6 µM.
For `Cc1cccc(C)c1NC(=O)CCC(=O)NNc1nnc(C)n1N`, the TGI was > 100 µM.
With `Cc1ccc(N=Nc2c(C)nn(-c3ccccc3)c2C)c(Br)c1` the TGI was > 100 µM.

These molecules were tested on KM12 colon (assay: NCI-60 cell line screen, 48 h).
For `[O-][n+]1c(-c2ccccc2)oc2ccccc21`, the TGI was > 100 µM.
With `Cc1cccc(C)c1NC(=O)CCC(=O)NNc1nnc(C)n1N` the TGI was > 100 µM.
In the case of `Cc1ccc(N=Nc2c(C)nn(-c3ccccc3)c2C)c(Br)c1`, the TGI is reported as > 100 µM.
In the case of `CCOC(=O)[C@]12C3C=CC(C3)C1C(=O)C1OC12` (some centres not stated), the TGI is reported as > 100 µM.

The molecules below were run on OVCAR-8 ovarian (assay: NCI-60 cell line screen, 48 h).
In the case of `[O-][n+]1c(-c2ccccc2)oc2ccccc21`, the TGI is reported as > 100 µM.
For `Cc1cccc(C)c1NC(=O)CCC(=O)NNc1nnc(C)n1N`, the TGI was > 100 µM.
In the case of `Cc1ccc(N=Nc2c(C)nn(-c3ccccc3)c2C)c(Br)c1`, the TGI is reported as > 100 µM.
`CCOC(=O)[C@]12C3C=CC(C3)C1C(=O)C1OC12` (some centres not stated) was tested, and the TGI was > 100 µM.

Each molecule was assayed on UACC-62 melanoma (assay: NCI-60 cell line screen, 48 h).
`[O-][n+]1c(-c2ccccc2)oc2ccccc21` showed a TGI of 23.1 µM.
For `Cc1cccc(C)c1NC(=O)CCC(=O)NNc1nnc(C)n1N`, the TGI was > 100 µM.
`Cc1ccc(N=Nc2c(C)nn(-c3ccccc3)c2C)c(Br)c1` was tested, and the TGI was > 100 µM.
With `CCOC(=O)[C@]12C3C=CC(C3)C1C(=O)C1OC12` (some centres not stated) the TGI was > 100 µM.

What follows are molecules tested on K-562 leukemia (assay: NCI-60 cell line screen, 48 h).
In the case of `[O-][n+]1c(-c2ccccc2)oc2ccccc21`, the TGI is reported as > 100 µM.
In the case of `Cc1cccc(C)c1NC(=O)CCC(=O)NNc1nnc(C)n1N`, the TGI is reported as > 100 µM.
For `Cc1ccc(N=Nc2c(C)nn(-c3ccccc3)c2C)c(Br)c1`, the TGI was > 100 µM.
With `CCOC(=O)[C@]12C3C=CC(C3)C1C(=O)C1OC12` (some centres not stated) the TGI was > 100 µM.

These molecules were tested on SR leukemia (assay: NCI-60 cell line screen, 48 h).
With `[O-][n+]1c(-c2ccccc2)oc2ccccc21` the TGI was > 100 µM.
With `Cc1cccc(C)c1NC(=O)CCC(=O)NNc1nnc(C)n1N` the TGI was > 100 µM.

Each molecule was assayed on OVCAR-5 ovarian (assay: NCI-60 cell line screen, 48 h).
Molecule `[O-][n+]1c(-c2ccccc2)oc2ccccc21` has a TGI of 67.1 µM.
In the case of `Cc1cccc(C)c1NC(=O)CCC(=O)NNc1nnc(C)n1N`, the TGI is reported as > 100 µM.
